Each structure is given as a SMILES string.

The values that follow come from patent publication US20150045551A1, “FUSED AZOLE DERIVATIVE” (TAISHO PHARMACEUTICAL CO., LTD, priority 2012, published 2015).

This test has as its target T1, Human V1b receptor (Homo sapiens, UniProt P47901).
T1 sequence (P47901 1-424): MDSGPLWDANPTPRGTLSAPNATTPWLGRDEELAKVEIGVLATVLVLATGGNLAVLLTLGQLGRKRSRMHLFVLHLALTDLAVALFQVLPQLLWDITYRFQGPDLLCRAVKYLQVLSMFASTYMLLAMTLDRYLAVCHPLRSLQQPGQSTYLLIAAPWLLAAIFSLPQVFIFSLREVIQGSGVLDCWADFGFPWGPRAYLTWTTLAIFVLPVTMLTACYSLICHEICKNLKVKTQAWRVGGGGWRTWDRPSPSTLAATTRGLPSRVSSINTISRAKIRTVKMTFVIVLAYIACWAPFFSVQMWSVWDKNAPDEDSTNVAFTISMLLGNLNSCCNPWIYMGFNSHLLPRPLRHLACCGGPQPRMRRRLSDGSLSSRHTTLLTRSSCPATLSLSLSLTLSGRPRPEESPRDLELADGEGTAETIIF
Briefly: Binding test for V1b receptor ([3H]AVP displacement, crude membrane preparation). On the set-up: expressed in transfected cells; host or cells: 293FT cells (transient expression). As to conditions: [3H]AVP 0.4 to 1 nmol/L; membranes of 293FT cells transiently expressing human V1b receptor; room temperature, 60 minutes. The procedure: Human V1b receptor was transiently expressed in 293FT cells, which were then recovered and homogenated in a 15 mmol/L tris-hydrochloric acid buffer (pH 7.4 and containing 2 mmol/L magnesium chloride, 0.3 mmol/L ethylenediaminetetracetic acid, and 1 mmol/L glycol ether diaminetetraacetic acid). The resulting homogenate was centrifuged at 50,000×g at 4 ° C. for 20 minutes. The precipitate was resuspended in a 75 mmol/L tris-hydrochloric acid buffer (pH 7.4 and containing 12.5 mmol/L magnesium chloride, 0.3 mmol/L ethylenediaminetetracetic acid, 1 mmol/L glycol ether diaminetetraacetic acid, and 250 mmol/L sucrose) to give a crude membrane preparation, which was stored at −80° C. until the binding test was initiated. In the binding test, the crude membrane preparation was diluted with a 50 mmol/L tris-hydrochloric acid buffer (pH 7.4 and containing 10 mmol/L magnesium chloride and 0.1% bovine serum albumin) and mixed with each test compound and [^3H]AVP (final concentration: 0.4 to 1 nmol/L), followed by incubation at room temperature for 60 minutes. The test compound was serially diluted with DMSO so that it would have final concentrations of 0.01 nmol/L to […] at the time of mixing. After the incubation, the mixture was suction filtered through a GF/C filter that was preliminarily impregnated with 0.3% polyethyleneimine. The GF/C filter was dried and after adding a scintillator, the residual radioactivity on the filter was measured using TopCount (PerkinElmer Inc.). The radioactivity in the presence of unlabeled AVP at 10 μmol/L was defined as 0%, and the radioactivity in the absence of unlabeled AVP was defined as 100%. A dose-response curve was plotted from radioactivities in the presence of a test compound at various concentrations, and the 50% inhibitory concentration (IC50 value) of the test compound was calculated.

The IC50 is the concentration that inhibits the measured activity by half. For the compound `CC(C)NC(=O)Cn1c(-c2cccc(Cl)c2)cc2cc(OCCCN3CCC4(CC3)COC4)ccc21` [Example B-10, 2-{2-(3-chlorophenyl)-5-[3-(2-oxa-7-azaspiro[3.5]non-7-yl)propoxy]-1H-indol-1-yl}-N-isopropyl acetamide], the 50% inhibitory concentration (IC50) came to 20.2 nM.

In turn, `COc1cccc(-c2nc3cc(OCCCN4CCOCC4)ccc3n2CC(=O)NC(C)C)n1` [Example A-18, N-isopropyl-2-{2-(6-methoxypyridin-2-yl)-5-[3-(morpholin-4-yl)propoxy]-1H-benzimidazol-1-yl}acetamide] yielded an IC50 of 83.6 nM.

For `COc1cc(-c2cc3cc(OCCCN4CC5(COC5)C4)ccc3n2CC(=O)NC(C)C)ccc1F` [Example B-15, 2-{2-(4-fluoro-3-methoxyphenyl)-5-[3-(2-oxa-6-azaspiro[3.3]hept-6-yl)propoxy]-1H-indol-1-yl}-N-isopropyl acetamide], the IC50 stood at 8.3 nM.

On to `CC(C)NC(=O)Cc1c(-c2ccc(F)c(Cl)c2)nc2cc(OCCCN3CCOCC3)ccn12` [Example C-2, 2-{2-(3-chloro-4-fluorophenyl)-7-[3-(morpholin-4-yl)propoxy]imidazo[1,2-a]pyridin-3-yl}-N-isopropyl acetamide], for which the IC50 came to 9.9 nM.

`CC(C)NC(=O)Cn1c(-c2cccc(Cl)c2)nc2cc(OCCCN3CC4(COC4)C3)ccc21` [Example A-3, 2-{2-(3-chlorophenyl)-5-[3-(2-oxa-6-azaspiro[3.3]hept-6-yl)propoxy]-1H-benzimidazol-1-yl}-N-isopropyl acetamide] yielded an IC50 of 8.3 nM.

Take `CC(C)NC(=O)Cn1c(-c2cccc(Cl)c2)cc2cc(OCCCN3CCC(O)CC3)ccc21` [Example B-6, 2-{2-(3-chlorophenyl)-5-[3-(4-hydroxypiperidin-1-yl)propoxy]-1H-indol-1-yl}-N-isopropyl acetamide]: the IC50 was 18.4 nM.

`CC(C)NC(=O)Cn1c(-c2ccc(F)c(Cl)c2)nc2cc(OCCCN3CC4(COC4)C3)ccc21` [Example A-15, 2-{2-(3-chloro-4-fluorophenyl)-5-[3-(2-oxa-6-azaspiro[3.3]hept-6-yl)propoxy]-1H-benzimidazol-1-yl}-N-isopropyl acetamide] registered an IC50 of 3.8 nM.

On to `COc1cc(-c2cc3cc(OCCCN4CCCC(O)C4)ccc3n2CC(=O)NC(C)C)ccc1F` (stereo not drawn) [Example B-13, 2-{2-(4-fluoro-3-methoxyphenyl)-5-[3-(3-hydroxypiperidin-1-yl)propoxy]-1H-indol-1-yl}-N-isopropyl acetamide], for which the IC50 is 87.1 nM.

Compound `CC(C)NC(=O)Cn1c(-c2cccc(Cl)c2)cc2c1CCN(CCCCN1CCCCC1)C2` [Example E-1, 2-{2-(3-chlorophenyl)-5-[4-(piperidin-1-yl)butyl]-4,5,6,7-tetrahydro-1H-pyrrolo[3,2-c]pyridin-1-yl}-N-isopropyl acetamide] came in with an IC50 of 522 nM.

In turn, `COc1cc(-c2nc3cc(OCCCN4[C@@H]5CC[C@H]4COC5)ccc3n2CC(=O)NC(C)C)ccc1F` [Example A-8, 2-[2-(4-fluoro-3-methoxyphenyl)-5-{3-[(1R,5S)-3-oxa-8-azabicyclo[3.2.1]oct-8-yl]propoxy}-1H-benzimidazol-1-yl]-N-isopropyl acetamide] showed an IC50 of 2.5 nM.

`CC(C)NC(=O)Cn1c(-c2cccc(Cl)c2)cc2cc(OCCCN3CCCC(O)C3)ccc21` (stereo not drawn) [Example B-7, 2-{2-(3-chlorophenyl)-5-[3-(3-hydroxypiperidin-1-yl)propoxy]-1H-indol-1-yl}-N-isopropyl acetamide] registered an IC50 of 73.4 nM.

In turn, `COc1cc(-c2cc3cc(OCCCN4CCC(O)CC4)ccc3n2CC(=O)NC(C)C)ccc1F` [Example B-12, 2-{2-(4-fluoro-3-methoxyphenyl)-5-[3-(4-hydroxypiperidin-1-yl)propoxy]-1H-indol-1-yl}-N-isopropyl acetamide] returned an IC50 of 45.3 nM.

Regarding `COc1cccc(-c2cc3cc(OCCCN4CCCCC4)ccc3n2CC(=O)NC(C)C)c1` [Example B-20, N-isopropyl-2-{2-(3-methoxyphenyl)-5-[3-(piperidin-1-yl)propoxy]-1H-indol-1-yl}acetamide], the IC50 turned out to be 129 nM.

Take `COc1cc(-c2cc3cc(OCCCN4CCC[C@H]4C)ccc3n2CC(=O)NC(C)C)ccc1F` [Example B-16, 2-[2-(4-fluoro-3-methoxyphenyl)-5-{3-[(2R)-2-methylpyrrolidin-1-yl]propoxy}-1H-indol-1-yl]-N-isopropyl acetamide]: the IC50 came out at 166 nM.

With `COc1cc(-c2cc3cc(OCCCN4CCCCC4)ccc3n2CC(=O)NC(C)C)ccc1F` [Example B-11, 2-{2-(4-fluoro-3-methoxyphenyl)-5-[3-(piperidin-1-yl)propoxy]-1H-indol-1-yl}-N-isopropyl acetamide], the IC50 turned out to be 52.1 nM.

The compound `CC(C)NC(=O)Cn1c(-c2ccc(F)c(Cl)c2)nc2cc(OCCCCN3CCCCC3)ccc21` [Example A-17, 2-{2-(3-chloro-4-fluorophenyl)-5-[4-(piperidin-1-yl)butoxy]-1H-benzimidazol-1-yl}-N-isopropyl acetamide] gave a half-maximal inhibitory concentration (IC50) of 176 nM.

`COc1cncc(-c2cc3cc(OCCCN4CCCCC4)ccc3n2CC(=O)NC(C)C)c1` [Example B-19, N-isopropyl-2-{2-(5-methoxypyridin-3-yl)-5-[3-(piperidin-1-yl)propoxy]-1H-indol-1-yl}acetamide] came in with an IC50 of 387 nM.

`CC(C)NC(=O)Cn1c(-c2cccc(Cl)c2)cc2cc(CCCCN3CCCCC3)ccc21` [Example B-18, 2-{2-(3-chlorophenyl)-5-[4-(piperidin-1-yl)butyl]-1H-indol-1-yl}-N-isopropyl acetamide] gave an IC50 of 20.1 nM.

On to `CC(C)NC(=O)Cc1nc2cc(OCCCN3CCCCC3)ccn2c1-c1cccc(Cl)c1` [Example F-1, 2-{3-(3-chlorophenyl)-7-[3-(piperidin-1-yl)propoxy]imidazo[1,2-a]pyridin-2-yl}-N-isopropyl acetamide], for which the IC50 was determined as 82 nM.

`CC(C)NC(=O)Cn1c(=O)c2cc(OCCCN3CCCCC3)ccc2n1-c1cccc(Cl)c1` [Example D-1, 2-{1-(3-chlorophenyl)-3-oxo-5-[3-(piperidin-1-yl)propoxy]-1,3-dihydro-2H-indazol-2-yl}-N-isopropyl acetamide] returned a half-inhibitory concentration (IC50) of 375 nM.

Compound `CC(C)NC(=O)Cn1c(-c2cccc(Cl)c2)cc2nc(OCCCN3CCCCC3)ccc21` [Example B-22, 2-{2-(3-chlorophenyl)-5-[3-(piperidin-1-yl)propoxy]-1H-pyrrolo[3,2-b]pyridin-1-yl}-N-isopropyl acetamide] showed an IC50 of 47.1 nM.

`CN1CCCN(c2ccc3c(c2)nc(-c2ccc(F)c(Cl)c2)n3CC(=O)NC(C)(C)C)CC1` [Example A-23, N-tert-butyl-2-[2-(3-chloro-4-fluorophenyl)-5-(4-methyl-1,4-diazepan-1-yl)-1H-benzimidazol-1-yl]acetamide] showed a half-inhibitory concentration (IC50) of 3.1 nM.

For the compound `CC(C)NC(=O)Cn1c(-c2cccc(Cl)c2)cc2cc(OCCCN3CCC(O)C3)ccc21` (stereo not drawn) [Example B-8, 2-{2-(3-chlorophenyl)-5-[3-(3-hydroxypyrrolidin-1-yl)propoxy]-1H-indol-1-yl}-N-isopropyl acetamide], the IC50 was determined as 52.3 nM.

Consider `CC(C)NC(=O)Cc1c(-c2ccc(F)c(Cl)c2)nc2cc(OCCCN3CCCCC3)ccn12` [Example C-1, 2-{2-(3-chloro-4-fluorophenyl)-7-[3-(piperidin-1-yl)propoxy]imidazo[1,2-a]pyridin-3-yl}-N-isopropyl acetamide], for which the IC50 amounted to 10.7 nM.

As to `COc1cc(-c2nc3cc(N4CCCN(C(C)C)CC4)ccc3n2CC(=O)NC(C)(C)C)ccc1F` [Example A-20, N-tert-butyl-2-[2-(4-fluoro-3-methoxyphenyl)-5-(4-isopropyl-1,4-diazepan-1-yl)-1H-benzimidazol-1-yl]acetamide], the IC50 was found to be 8.6 nM.

As to `CC(C)NC(=O)Cn1c(-c2ccc(F)c(Cl)c2)nc2cc(N3CCCN(C)CC3)ccc21` [Example A-22, 2-[2-(3-chloro-4-fluorophenyl)-5-(4-methyl-1,4-diazepan-1-yl)-1H-benzimidazol-1-yl]-N-isopropyl acetamide], the half-maximal inhibitory concentration (IC50) worked out at 15.4 nM.

`COc1cc(-c2nc3cc(OCCCN4CC5(COC5)C4)ccc3n2CC(=O)NC(C)C)ccc1F` [Example A-7, 2-{2-(4-fluoro-3-methoxyphenyl)-5-[3-(2-oxa-6-azaspiro[3.3]hept-6-yl)propoxy]-1H-benzimidazol-1-yl}-N-isopropyl acetamide] came in with an IC50 of 4.8 nM.
